We go through twelve compounds from US20250213478A1, “CATIONIC LIPID HAVING DISULFIDE BOND, LIPID MEMBRANE STRUCTURE INCLUDING SAME, NUCLEIC ACID INTRODUCTION AGENT AND PHARMACEUTICAL COMPOSITION CONTAINING ANY ONE OF SAME, METHOD FOR INTRODUCING NUCLEIC ACID INTO CELL OR TARGET CELL, AND METHOD FOR PRODUCING CELLULAR PHARMACEUTICAL” (NOF Corporation, priority 2022, published 2025).

As a reminder, the pKa is the negative logarithm of the acid dissociation constant.

One data set has as its system HeLa cells. As to the kind of experiment: Evaluation of in vitro gene expression in HeLa cell (luciferase mRNA-encapsulating LNP). The format is cell-based, human. The settings on record: for cumulative luciferase luminescence intensity over 24 hr: luciferase mRNA 0.4 μg per dish, LNP cationic lipid:DOPC:Chol:DMG-PEG2k=55:5:40:1; for gene expression activity compared to Comparative Example: result in words. Here is the method: LNP encapsulating mRNA that expresses luciferase (cationic lipid:DOPC:Chol:DMG-PEG2k=55:5:40:1 (molar ratio)) was prepared by the method described in [Experimental Example 2], 1.
HeLa cells, which are human cervical cancer cells, were seeded in a 3.5 cm dish at 5.0×10^4 cells/2 mL/Dish 24 hours before transfection. After 24 hours, the medium was exchanged with a culture medium (D-MEM) containing 0.1 mM D-luciferin. Prepared mRNA-encapsulating LNP was diluted with PBS such that the concentration of mRNA was about 8 μg/mL. The diluted mRNA-encapsulating LNP solution (about 50 μL, mRNA: 0.4 μg) was added to the 3.5 cm dish and set in an incubator luminometer KronosDio. The luminescence intensity of luciferase was measured for 2 min every one hour. The cumulative luciferase luminescence intensity for 24 hr was calculated from the obtained time change of expression. For example, “1.0E+06” means “1.0×10^6”. In Comparative Example, the cationic lipid described in the aforementioned Table 3 were used.

Data set [1] in a line: Measurement of Liposomal pKa of LNP (TNS fluorescence). The format is physicochemical. The settings on record: LNP without nucleic acid, cationic lipid:DOPC:Chol=52.5:7.5:40 + about 1.5 mol DMG-PEG2k; pH at which relative TNS fluorescence intensity was 50%. Here is the method: Lipid nanoparticles (LNP) without containing nucleic acid were used for the evaluation of Liposomal pKa.
A 10 mM ethanol solution of cationic lipid, a 5 mM ethanol solution of DOPC, and a 10 mM ethanol solution of Chol were mixed at desired ratio (cationic lipid:DOPC:Chol=52.5:7.5:40 (molar ratio)) in an Eppendorf tube to achieve the total lipid amount of 720 nmol. To the obtained mixture was further added DMG-PEG2k (2 mM ethanol solution) in an amount of about 1.5 mol with respect to the total amount 100 mol of cationic lipid, DOPC, and Chol, and then ethanol was added to prepare an ethanol solution of the lipid (total amount: 360 μL).
(§1) An acidic malic acid buffer (20 mM, pH 3.0) (1080 μL) containing NaCl at a final concentration of 30 mM and an ethanol solution (360 μL) of lipid were each weighed in a syringe. Using an ultra high-speed nanomedicament producing apparatus NanoAssmblr (manufactured by Precision NanoSystems), LNP was prepared under the conditions of addition rate of acidic buffer solution: 3 mL/min, addition rate of ethanol solution of lipid: 1 mL/min, and syringe holder temperature: 25° C., and collected in a 15 mL tube. MES buffer (pH 6.5) (3000 μL) was added to the 15 mL tube, the obtained mixture was transferred to Amicon Ultra 4, and ultrafiltration was performed under centrifugation conditions (25° C., 1000 g, 6 min) to concentrate the mixture to about 100 μL. The obtained concentrate was diluted with PBS to 4 mL, and the mixture was concentrated again under centrifugation conditions (25° C., 1000 g, 6 min), and this operation was performed twice. The obtained concentrate was diluted with PBS to a lipid concentration of 0.5 mM to give a dispersion containing LNP.
20 mM Citrate buffer, sodium phosphate buffer, and tris HCl buffer, each containing NaCl at a final concentration of 150 mM and adjusted to various pHs within the range of pH 3.0 to 10.0, were prepared. TNS (manufactured by Sigma) was diluted with ultrapure water to 0.6 mM. TNS solution (2 μL), dispersions (12 μL) containing LNP prepared in [Experimental Example 1], 1., and buffers adjusted to various pHs (186 μL) were added to a black 96 well plate. The plate was protected from light and shaken at 400 rpm for 10 min. The fluorescence intensity (excitation: 321 nm/emission: 447 nm) was measured using a plate reader (manufactured by TECAN). The relative fluorescence intensity was calculated as a percentage, with the maximum value of the fluorescence intensity in each LNP being 100% and the minimum value being 0%. Furthermore, the pH at which the relative fluorescence intensity was 50% was taken as Liposomal pKa. In Comparative Example, the cationic lipid described in the aforementioned Table 3 were used.

A short description of data set [2]: Particle size, PdI and zeta potential of mRNA-encapsulating LNPs (dynamic light scattering). The format is physicochemical. To be noted: mRNA-encapsulating LNP, cationic lipid:DOPC:Chol=55:5:40 + about 1 mol DMG-PEG2k; for PdI / particle size: dynamic light scattering; for zeta potential: physiological pH. Here is the method:
A 10 mM ethanol solution of cationic lipid, a 5 mM ethanol solution of DOPC, and a 10 mM ethanol solution of Chol were mixed at desired ratio (cationic lipid:DOPC:Chol=55:5:40 (molar ratio)) in an Eppendorf tube to achieve the total lipid amount of 720 nmol. To the obtained mixture was further added DMG-PEG2k (2 mM ethanol solution) in an amount of about 1 mol with respect to the total amount 100 mol of cationic lipid, DOPC, and Chol, and then ethanol was added to prepare an ethanol solution of the lipid (total amount: 360 μL).
An acidic buffer solution (total amount: 1080 μL) of nucleic acid was prepared by weighing 7.2 μg of mRNA solution (0.6 mg/mL) in a 5 mL tube and adding acidic malate buffer (20 mM, pH 3.0) containing NaCl at a final concentration of 30 mM.
as §1, with “buffer solution of nucleic” for “malic”, “acid” for “acid buffer (20 mM, pH 3.0) (1080 μL) containing NaCl at a final concentration of 30 mM”, “solution” for “solution (360 μL)”, “solution of nucleic acid:” for “solution:”, “2” for “0.5”
The particle size, PdI (Polydispersity Index), and zeta potential of the mRNA-encapsulating LNP prepared by the method of the above-mentioned 1 were measured by a dynamic light scattering method. In Comparative Example, the cationic lipid described in the aforementioned Table 3 were used.

Regarding `CCCCCCCCC(CCCCCC)C(=O)Oc1ccc(CC(=O)OCCSSCCOC(=O)CCCN(C)C)cc1` (centres unmarked) [Example 4], the “cumulative luciferase luminescence intensity over 24 hr” value with HeLa cells is reported as 3.09E+05 RLU. For the same compound, the pKa in data set [1] is 7.8. Further, in data set [2], the PdI is recorded as 0.116, the particle size stood at 64 nm and the zeta potential is 12.2 mV.

`CCCCCCCCCCC(CCCCCCCCCC)C(=O)Oc1ccc(CC(=O)OCCSSCCOC(=O)CCCN(C)C)cc1` [Example 5]: in the data set on HeLa cells, the “cumulative luciferase luminescence intensity over 24 hr” value stood at 2.15E+08 RLU and the “gene expression activity compared to Comparative Example” value is on record as “superior gene expression activity”. Further, the pKa in data set [1] stood at 7.8. In data set [2], the PdI is recorded as 0.081, the particle size turned out to be 74 nm and the zeta potential is recorded as −2.9 mV.

Take `CCCCCCCCCCCCCCCCC(CCCCCCCCCCCCCCCC)C(=O)Oc1ccc(CC(=O)OCCSSCCOC(=O)CCCN(C)C)cc1` [Example 8]: in the data set with HeLa cells, the “cumulative luciferase luminescence intensity over 24 hr” value was 2.83E+08 RLU and the “gene expression activity compared to Comparative Example” value is “superior gene expression activity”. Besides, the pKa in data set [1] stood at 7.8. Further, in data set [2], the PdI was 0.101, the particle size came out at 72 nm and the zeta potential stood at 5.3 mV.

On to `CCCCCCCCCCCCCCCCCCC(CCCCCCCCCCCCCCCCCC)C(=O)Oc1ccc(CC(=O)OCCSSCCOC(=O)CCCN(C)C)cc1` [Example 9], for which, in the data set with HeLa cells, the “cumulative luciferase luminescence intensity over 24 hr” value is 1.25E+08 RLU and the “gene expression activity compared to Comparative Example” value was “superior gene expression activity”. Besides, the pKa in data set [1] was 7.8. In data set [2], the PdI was 0.168, the particle size is on record as 96 nm and the zeta potential is 12.1 mV.

As for `CCCCCCCCCCCCCCCCC(CCCCCCCCCCCCCCCC)C(=O)Oc1ccc(CC(=O)OCCSSCCOC(=O)CCCN(CC)CC)cc1` [Example 10], in the data set on HeLa cells, the “cumulative luciferase luminescence intensity over 24 hr” value is listed as 1.90E+08 RLU and the “gene expression activity compared to Comparative Example” value is on record as “superior gene expression activity”. Besides, in data set [1], the pKa is 7.4. In addition, in data set [2], the PdI is reported as 0.077, the particle size is 80 nm and the zeta potential was 4.9 mV.

`CCCCCCCCCCCCCCCCC(CCCCCCCCCCCCCCCC)C(=O)Oc1ccc(CC(=O)OCCSSCCOC(=O)CCCN2CCCCC2)cc1` [Example 11]: in the data set with HeLa cells, the “cumulative luciferase luminescence intensity over 24 hr” value is reported as 6.71E+07 RLU and the “gene expression activity compared to Comparative Example” value is “superior gene expression activity”. Further, the pKa in data set [1] amounted to 7. Also, in data set [2], the PdI is 0.079, the particle size worked out at 86 nm and the zeta potential is reported as −0.9 mV.

`CCCCCCCCCCCCCCCCC(CCCCCCCCCCCCCCCC)C(=O)Oc1ccc(CC(=O)OCCSSCCOC(=O)CCCN(CCC)CCC)cc1` [Example 12]: the “cumulative luciferase luminescence intensity over 24 hr” value in the data set on HeLa cells was found to be 1.13E+05 RLU. Besides, the pKa in data set [1] stood at 6.2. For the same compound, in data set [2], the PdI was 0.071, the particle size is listed as 84 nm and the zeta potential is listed as −4.4 mV.

Take `CCCCCCCC/C=C\CCCCCCCC(=O)Oc1ccc(CC(=O)OCCSSCCOC(=O)CCCN(C)C)cc1OC(=O)CCCCCCC/C=C\CCCCCCCC` [Example 15]: in the data set with HeLa cells, the “cumulative luciferase luminescence intensity over 24 hr” value is 8.22E+07 RLU and the “gene expression activity compared to Comparative Example” value is “superior gene expression activity”. The pKa in data set [1] worked out at 6.3. Moreover, in data set [2], the PdI was found to be 0.112, the particle size was 65 nm and the zeta potential worked out at 6.0 mV.

As for `CCCCCCCCCCCCCCCCC(CCCCCCCCCCCCCCCC)C(=O)Oc1ccc(CC(=O)OCCSSCCN(CC)CC)cc1` [Example 17], the “cumulative luciferase luminescence intensity over 24 hr” value with HeLa cells came out at 8.39E+04 RLU. Also, the pKa in data set [1] was 6.2. In addition, in data set [2], the PdI is recorded as 0.064, the particle size was 105 nm and the zeta potential is reported as −2.6 mV.

With `CCCCCCCCCCCCCCCCC(CCCCCCCCCCCCCCCC)C(=O)Oc1ccc(CC(=O)NCCSSCCNC(=O)CN(C)C)cc1` [Example 18], the “cumulative luciferase luminescence intensity over 24 hr” value in the data set with HeLa cells is on record as 3.99E+06 RLU. In addition, the pKa in data set [1] turned out to be 6.8. Moreover, in data set [2], the PdI turned out to be 0.132, the particle size amounted to 105 nm and the zeta potential is listed as 5.3 mV.

`CCCCCCCCCCCCCCCCC(CCCCCCCCCCCCCCCC)C(=O)Oc1ccc(CC(=O)NCCSSCCNC(=O)CCN(C)C)cc1` [Example 19]: in the data set with HeLa cells, the “cumulative luciferase luminescence intensity over 24 hr” value is 2.55E+07 RLU and the “gene expression activity compared to Comparative Example” value is “superior gene expression activity”. Moreover, the pKa in data set [1] turned out to be 8.2. Further, in data set [2], the PdI turned out to be 0.121, the particle size is 73 nm and the zeta potential turned out to be 13.1 mV.

For the compound `CCCCCCCC/C=C\CCCCCCCC(=O)Oc1ccc(CC(=O)OCC(C)(COC(=O)Cc2ccc(OC(=O)CCCCCCC/C=C\CCCCCCCC)cc2)C(=O)OCCSSCCOC(=O)NCCN(CC)CC)cc1` [Example 42], in the data set on HeLa cells, the “cumulative luciferase luminescence intensity over 24 hr” value amounted to 3.62E+07 RLU and the “gene expression activity compared to Comparative Example” value is on record as “superior gene expression activity”. The pKa in data set [1] is 7.3.
